Where no end group is shown, it is not given here.
Assays:
interleukin 6 (IL6) = assay: Interleukin 6 in supernatants of Phenion FTS full skin models (Bio-Plex multiplex immunoassay); type: cell-based, Human; settings: FIG. 4, left bar; peptide alone
Description: (§1) The investigations were carried out using Phenion FTS full skin models (Phenion, Henkel). These were maintained for 3 days at 37° C. and 7% CO2 in deep-well plates having a […] pore size in the cell culture inserts. The skin models were maintained in 1.5 ml of air-liquid interface medium without phenol red. The medium was changed daily. The test substances were dissolved in ethanol and incubated at room temperature for 24 h. After culturing for 24 h, 25 μl of the substance solution was dripped onto a sterile filter paper that had previously been laid on the skin model. The barrier peptide (0.5 mM AcRFAACAA) had previously been applied to the model as a solution in 100 mM phosphate buffer (pH 7.5). Alternatively, the barrier peptide was applied in a formulation having a content of 0.25% by weight.
(§2) After culturing for a further 24 h, the models were harvested and one half embedded in OCT mounting medium (VWR Q-Path Chemicals), the other half snap-frozen in liquid nitrogen. The supernatant of each model was collected and stored at −20° C.
The supernatants were then analyzed (FIGS. 2, 3 and 4).
The supernatants of the Phenion FTS models were analyzed using the Bio-Plex Pro Human Cytokine Screening Panel (Bio-Rad) according to the manufacturer's protocol. […] The cytokine concentrations are calculated on the basis of the standard curves from the Bioplex system. […]

Phenion skin models = assay: H&E staining of cryosections of Phenion skin models; type: cell-based; settings: FIG. 5B; 0.5 mM peptide (control)
Description: as §1, §2
In further investigations, frozen sections were thawed and incubated for 10 min in 3.7% paraformaldehyde at RT. After three PBS wash steps and one minute in distilled water, they are stained for 3 min in hematoxylin solution. […]

[1] = Direct peptide reactivity assay (DPRA) with urushiols, Ellman's reagent, 24 h; settings: FIG. 9; urushiols C15:1, C15:2, C15:3 (structures I-V); 24 h reaction, n=3
Description: FIGS. 7A-E, 8, and 9 show investigations into the reactivity of peptides of the invention with allergens over time (x-axis) and after 24 h. The absorbance is plotted on the y-axis. The peptide-allergen reactions were realized according to a direct peptide reactivity assay. The test is referred to as the in-chemico method, that is to say no cells are used, but a chemical reaction is carried out.
The native, still-unbound peptide is detected by reaction with Ellman's reagent and corresponding absorbance measurement. The direct peptide reactivity assay (DPRA) is a chemical method for predicting epidermal protein binding. DPRA uses for example HPLC to measure the depletion of peptides in solution after exposure to test chemicals.
In the DPRA method, the absorbance at 415 nm is determined as the measured variable.
The allergen concentration is in the investigations carried out a standard 5 mM and thus 10 times the concentration of the peptide used (0.5 mM).
The reaction courses shown in FIGS. 8 and 9 were determined colorimetrically through the reaction of the peptide with Ellmann's reagent in a photometer. In this reaction, DTNB ((5,5′-dithiobis-2-nitrobenzoic acid, Ellmann's reagent) is cleaved and attached to the SH residue of the amino acid cysteine of the peptides of the invention (Ac-RFAACAA, RFAACAA). […]

Substance	interleukin 6 (IL6) concentration, peptide on its own (interleukin 6 (IL6))	skin model histology (H&E), peptide alone (Phenion skin models)	reactivity and thus protective activity against urushiols [1]
Ac-RFAACAA [Ac-RFAACAA, acetylarginine-phenylalanine-alanine-alanine-cysteine-alanine-alanine]	unchanged	unchanged	
RFAACAA [Arg Phe Ala Ala Cys Ala Ala]			very high reactivity

Source: patent US20230109157A1, “TOPICALLY APPLICABLE PREPARATION COMPRISING PEPTIDES AS ALLERGEN PROTECTION FOR THE SKIN” (BEIERSDORF AG, priority 2020, published 2023)
